Consider one compound from patent US9205073B2, “Method for treating virus infection using derivative of aniline” (CHINA MEDICAL UNIVERSITY, priority 2014, dated 2015).

The subject of data set [1] is EV71. Description: Enterovirus infection-induced cytopathic effect / cell survival in RD cells with interferon. It is filed as cell-based, enterovirus type 71. As to conditions: for Cell survival rate: 36 hours. The procedure:
The RD cells were cultured in a 24-well culture plate at an initial density of 3×10^4 per well with 1 ml of 2% FBS-containing MEM medium per well. The cells were incubated in an incubator (37° C., 5% CO2) overnight. The medium was removed until the cells adhered to the plate. 1 ml of fresh 2% FBS-containing MEM medium was simultaneously added into each well. The RD cells were infected with an EV71 virus strain (M.O.I.=0.1). […] The RD cells were incubated in an incubator (37° C., 5% CO2) for 36 hours, and then their morphology was observed by photography. In addition, 200 μl of culture medium supernatant was collected from each well and stored at −80° C. for conducting the viral plaque test of Example 12.

Data set [2] has as its system PKR, OAS, IFN-α and interferon receptor. As to the kind of experiment: Real-time PCR of anti-virus gene expression in JEV T1P1-infected TE671 cells. It is filed as cell-based. To be noted: JEV T1P1-infected TE671 cells (M.O.I.=1), 8 hours, compound 125. How it is done: TE671 cells were cultured in a 6-well culture plate in accordance with the experimental conditions. The next day, TE671 cells were infected with the JEV T1P1 virus strain (M.O.I.=1), and various concentrations (the final concentration of compound 1 were about 0 or 125 respectively) of compound 1 were added into different wells simultaneously. The cells were then incubated in an incubator (37° C., 5% CO2) for 8 hours, and then collected. The cells were re-suspended with PBS and precipitated by centrifugation (2000 rpm, 5 minutes), and then extracted by Pure Link RNA Mini Kit to obtain the RNA. If the obtained RNA was desired to be stored at −20° C., then the RNA would have to reverse transcribed into cDNA using the following reverse transcription PCR (RT-PCR) steps: i) 11 μl RNA was placed into a microtube, and put into a 55° C. […]
The expression of anti-virus genes was analyzed by real-time PCR. […] Then, the amount of fluorescence of each cycle was determined by ABI Prism 7500 software. The fold difference of each gene as compared to the control group was calculated by using Ct to calculate ΔCt and ΔΔCt (i.e., ΔCt=Ct. exp−Ct. control, ΔΔCt=ΔCt. exp−ΔCt. mock). Then, 2^−ΔΔCt can thereby be calculated.
On the technique in general: Real-time PCR tracks product formation cycle by cycle.

Data set [3] has as its system EV71. Description: Enterovirus infection-induced cytopathic effect in RD cells. It counts as cell-based, enterovirus type 71. As to conditions: infected 36 hours, M.O.I.=0.1, compound 125 μM. How it is done: RD cells were cultured in a 24-well culture plate at an initial density of 3×10^4 per well with 1 ml of 2% FBS-containing MEM medium per well. The cells were incubated in an incubator (37° C., 5% CO2) overnight. The medium was removed, and then 1 ml of fresh 2% FBS-containing MEM medium was simultaneously added into each well. The RD cells were infected with EV71 virus strain (M.O.I.=0.1). Different concentrations of compound 1 (final concentrations were 0, 2.5, 25 and 125 μM) were added into different wells. The RD cells were incubated in an incubator (37° C., 5% CO2) for 36 hours, and then their morphology was observed by photography.
In general terms: Protection from cytopathic effect is a common read-out in antiviral testing.

Another data set has as its system DEN2. Description: Dengue virus replication, DEN2 NS1 antigen-capture ELISA in Huh7 cells. It is filed as cell-based, dengue virus type 2. To be noted: M.O.I.=5, 48 hours, compound 10 μM. The procedure:
Huh7 cells were cultured in a 24-well culture plate with an initial density of 3×10^4 per well, and with 1 ml of 2% FBS-containing MEM medium per well. The cells were incubated in an incubator (37° C., 5% CO2) overnight. The medium was removed until the cells adhered to the plate. Then, 1 ml of fresh 2% FBS-containing MEM medium was simultaneously added into each well of the culture plate. The cells were infected with DEN2 virus strain (M.O.I.=5). Different concentrations of compound 1 (the final concentrations were 0, 10, 50, 100 and 150 μM, respectively) were added into different wells. The culture plate was placed into an incubator (37° C., 5% CO2) and maintained for 48 hours. The supernatant of viral medium was collected.
The above obtained supernatant was analyzed by an antigen-capture enzyme-linked immunosorbent assay (ELASA) to quantitate the DEN2 NSI protein level in the viral medium. First, a NS1 antibody was added into each well of a 96-well micro-reaction plate (200 μl/well) and the reaction was maintained at 4° C. overnight. Each well was washed with PBST 3 times (200 μl/time). A 1% BSA-containing blocking buffer (300 μl) was added into each well. […] The reading value of DEN NS1 protein amount in each supernatant was determined by examining the absorbances at a wavelength of 450 nm to evaluate DEN2 replication.

For `CCOC(=O)C1=C(Nc2cc(C)cc(C)c2)OCC1=O` [Compound 1, ethyl 2-(3′,5′-dimethylanilino)-4-oxo-4,5-dihydrofuran-3-carboxylate], the Cell survival rate with EV71 [1] (EV71 M.O.I.=0.1, IFN-β 100 unit/ml + Compound 1 2.5 μM) was 46.9%; in the data set on EV71 [1] (EV71 M.O.I.=0.1, IFN-β 100 unit/ml + Compound 1 25 μM), 55.86%; with EV71 [1] (EV71 M.O.I.=0.1, IFN-β 100 unit/ml + Compound 1 125 μM) it was 83.3%; in the data set on EV71 [1] (no EV71, no IFN-β, Compound 1 125 μM) it was 86.85%. In addition, the EV71-induced cytopathic effect entry with EV71 [1] (infected 36 hours, combination of compound 1 and 100 units/ml of IFN-β) was “effectively inhibited”; with EV71 [3], “effectively inhibited”. In addition, the “relative gene expression levels of PKR, OAS, IFN-α and interferon receptor” value in data set [2] is reported as “increase”. The “level of DEN2 NS1 protein” value in the data set with DEN2 is given as “reduced”.
